Here are results for three substances from patent US20210181215A1, “TREATMENT AND DIAGNOSIS OF ANAEMIA” (THE UNIVERSITY COURT OF THE UNIVERSITY OF ABERDEEN, priority 2017, published 2021).

In assay [1] the test system is untreated RBC uptake by HMDM. In words: Efferocytosis assay: uptake of untreated RBC by HMDM. In kind it is cell-based, human. The note with it: 3 h assay. As for the experimental part:
(§1) For clear identification of efferocytosis by microscopy, RBC were stained with cell trace far red (CTFR; Molecular Probes) according to manufacturer's instructions. RBC were added to HMDM at 5×10^7 cells per well for three hours before gentle removal and fixation with 4% paraformaldehyde. To identify cells bound but not and ingested by HMDM the cells were stained with anti-glycophorin A/B FITC (HIR2, Biolegend).
(§2) Mannan (10 mg/ml), chitin (50 μg/ml) and laminarin (10 μg/ml; all Sigma Aldrich) were applied for 60 minutes prior to three hour efferocytosis/phagocytosis assay and were not removed.
(§3) Cells were imaged at 32 times magnification using Immuno-Fluorescent Microscope (Zeiss).

The test system of assay [2] is oxidised RBC uptake by HMDM. In words: Efferocytosis assay: uptake of oxidised RBC by human monocyte derived macrophages. In kind it is cell-based. The note with it: RBC oxidised with CuSO4/ascorbic acid, 3 h assay, mannan 10 mg/ml, chitin 50 μg/ml, laminarin 10 μg/ml, anti-CD206 clone 15.2 10 μg/ml applied 60 min before, siRNA against MRC-1. As for the experimental part: RBC and SHSy5y neuronal cells were incubated with copper sulphate (CuSO4, 0.2 mM) and ascorbic acid (5 mM) for 60 minutes (RBC) or 30 minutes (SHSy5y) at 37° C. in DMEM with 4.5 g/L glucose. Cells were then washed in PBS three times prior to assays.
as §1
(§4) Ligand binding of CD206 was blocked with antibody clone 15.2 (10 μg/ml; BioLegend) by adding antibody or isotype control (10 μg/ml mouse IgG1 kappa clone 107.3, BD Biosciences) for 60 minutes prior to three hour efferocytosis assay and were not removed.
as §2, §3
To access percentage MR positive spindle/small round macrophages, anti-MR antibody (unlabelled clone 19.2) was stained with anti-mouse PE secondary antibody. Only spindle/small round macrophage population was examined as this is the subpopulation that expresses MR in wild type macrophages. SiRNA ([…], antisense, concentration Life Technologies) against mannose receptor (MRC-1) in humans was transfected into primary macrophages (RNAiMax, Life Technologies). (n=4 donors for all SiRNA experiments. Autologous red blood cells were used with macrophages.) Mannose receptor expression was established by microscopy using MR-Alexa-488 staining (described above) in the small non-granular macrophage sub-population by merging bright field and mannose receptor fluorescence staining.

The target in assay [3] is T1, Galanthus nivalis lectin (GNA) (Galanthus nivalis, UniProt P30617).
T1 construct: purchased Vector Laboratories B1245
T1 sequence (P30617 24-128 limits assumed): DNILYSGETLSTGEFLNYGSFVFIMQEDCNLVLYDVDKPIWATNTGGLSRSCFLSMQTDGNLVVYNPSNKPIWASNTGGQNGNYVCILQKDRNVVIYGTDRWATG
Description: Flow cytometry blockade of GNA lectin binding to the RBC surface. Particulars: oxidised / SCD RBC; lectin pre-incubated with mannan 5 mg/ml for 15 min. As to the method:
RBC, approximately 5×10^6 per test, were washed three times in PBS, and then incubated in calcium buffer with biotinylated GNA (4 μg/ml, Vector Laboratories, B1245) or in PBS for PNA-FITC (2 μg/ml Sigma Aldrich L7381) for 30 minutes in calcium buffer at room temperature (protected from light). Cells were then washed and incubated with streptavidin PE-Cy7 (0.27 μg/ml; eBioscience) or PE (0.67 μg/ml; BD Pharmingen) for 30 min at room temperature. Cells were washed and analysed.
(§5) For blockade testing, Lectin or FC fusion were pre-incubated with mannan (5 mg/ml, unless otherwise stated) for 15 minutes at room temperature. Mixture of mannan and Lectin or FC fusion was then incubated with washed RBC and compared to binding of Lectin or FC fusion without mannan.
(§6) Samples were acquired on FACSCalibur (BD) and analysed using FlowJo v10.0 (Treestar) software. The normalised geomean was calculated by subtracting the geomean of the secondary only paired controls. For PNA-FITC analysis, normalised geomean was calculated by subtracting geomean of unstained RBC (PBS incubation) control.

Assay [4] concerns uptake of RBC from patients with SCD (HbSS) by HMDM. Description: Efferocytosis assay: uptake of RBC from patients with SCD by HMDM. The class given is cell-based, human. The note with it: 3 h assay, mannan 10 mg/ml, chitin 50 μg/ml, anti-CD206 10 μg/ml. As for the experimental part:
as §1, §4, §2, §3

Assay [5] relates to carbohydrate binding domain of the mannose receptor CD206 (MR-CRD). Description: Flow cytometry blockade of MR-CRD (CD206 carbohydrate binding domain, Fc fusion) staining of oxidised RBC. Set-up: species or system murine. The note with it: FC fusion pre-incubated with mannan 5 mg/ml. As for the experimental part:
Humanised FC fusions of murine C-type lectins (5 μg/ml, kind gift from Gordon Brown, Screening for Ligands of C-Type Lectin-Like Receptors, Elwira PyżGordon D. Brown, 2011) were incubated with RBC for 30 minutes at room temperature in calcium buffer then detected by Alexa Fluor 647 goat anti-human secondary antibody (2 μg/ml, 109-605-098, Jackson ImmunoResearch Laboratories) incubated for 30 minutes at room temperature.
as §5, §6
(A flow cytometer gives signals particle by particle.)

In assay [6] the test system is phagocytosis of beads by HMDM. Description: Bead phagocytosis assay with HMDM (control). In kind it is cell-based, human. The note with it: 3 h. As to the method: Coumarin stained Fluoresbrite microparticles (8 μm; Polysciences, Inc.) were added to HMDM at 5×107 beads per well for three hours before gentle removal and suspension in PBS for immediate imaging.
as §4, §2, §3

Entries after “also recorded” stand apart in the source; their conditions may differ.

carbohydrate binding domain of the mannose receptor CD206 (MR-CRD), sequence (Q61830 645-781 limits assumed): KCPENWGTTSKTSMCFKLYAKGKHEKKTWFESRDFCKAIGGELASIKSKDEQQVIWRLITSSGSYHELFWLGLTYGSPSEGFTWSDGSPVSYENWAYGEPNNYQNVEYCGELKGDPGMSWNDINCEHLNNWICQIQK

Consider chitin, for which the “uptake of untreated RBC by HMDM” value in assay [1] was “not untreated”. The “uptake (efferocytosis) of oxidised RBC by HMDM” value (“uptake (efferocytosis)” below) in assay [2] is “significantly inhibited; also recorded: abrogated”. Also, in assay [3], the “blockade of GNA binding to RBC surface (FACS)” value was “inhibitable”. Further, the “uptake of RBC from patients with SCD by HMDM” value in assay [4] was “significantly inhibited; also recorded: blocked”.
Consider laminarin, for which, in assay [2], the “uptake (efferocytosis)” value is “not laminarin, significantly inhibited”.
As to mannan, the “uptake of untreated RBC by HMDM” value in assay [1] was “not untreated”. For the same substance, the “uptake (efferocytosis)” value in assay [2] is given as “significantly inhibited; also recorded: abrogated”; in assay [2] (listed as Mannan) it was “significantly blocked uptake”. Besides, in assay [5], the “blockade of MR-CRD staining of oxidised RBC (FACS)” value was “effective blockade”. Moreover, in assay [3], the “blockade of GNA binding to RBC surface (FACS)” value is on record as “effective blockade; also recorded: inhibitable”. For the same substance, the “uptake of RBC from patients with SCD by HMDM” value in assay [4] is on record as “significantly inhibited; also recorded: blocked”. For the same substance, in assay [6], the “phagocytosis of control beads by HMDM” value is “no effect”.
